Assay results taken from patent US9464052B2, “Potassium ion channel modulators and uses thereof” (Ramot at Tel-Aviv University Ltd., priority 2008, dated 2016).

Target: KCNQ2/KCNQ3 potassium channel (Homo sapiens, UniProt O43525+O43526)
Assay: KCNQ2/KCNQ3 potassium channel current, automated parallel patch clamp (PatchXpress 7000A)
Assay type: cell-based
Conditions: channel expressed in mammalian cells, ambient temperature
Description: The objective of this study was to examine the in vitro effects of the Example compounds on the KCNQ2/KCNQ3 potassium channel current expressed in mammalian cells using the PatchXpress 7000A (Molecular Devices), an automatic parallel patch clamp system. The test compounds were evaluated at 30 μM with this concentration tested in 3 cells (n=3). The duration of exposure to the test compound concentration was 5 minutes. […] The results for a positive control, flupirtine (Table 2) confirm the sensitivity of the test system to detect KCNQ2/KCNQ3 current enhancement.
All experiments were performed at ambient temperature. Each cell acted as its own control.
A 30 μM concentration of test compound was applied via disposable polyethylene micropipette tips to naïve cells (n=2, where n=the number cells). Each solution exchange, performed in quadruplicate, consisted of aspiration and replacement of 45 of the total 50 μL volume of the extracellular well of the Sealchip16.
Vehicle was applied to naïve cells (n 2, where n=the number cells), for a 5 minute exposure interval. Each solution exchange, performed in quadruplicate, consisted of aspiration and replacement of 45 μL of the total 50 μL volume of the extracellular well of the Sealchip16. After vehicle application, the positive control was applied in the same manner, to verify sensitivity of the assay.
In preparation for a recording session, intracellular solution was loaded into the intracellular compartments of the Sealchip16 planar electrode. Cell suspension was pipetted into the extracellular compartments of the Sealchip16 planar electrode. After establishment of a whole-cell configuration, membrane currents were recorded using dual-channel patch clamp amplifiers in the PatchXpress®system. Before digitization, the current records were low-pass filtered at one-fifth of the sampling frequency.
Data acquisition and analyses were performed using the suite of pCLAMP programs (Axon Instruments, Union City, Calif.). Steady state was defined by the limiting constant rate of change with time (linear time dependence). The steady state before and after test article application was used to calculate the percentage of current inhibited at each concentration. Results obtained from different cell were averaged and presented as Mean±S.D.—see Tables 1 and 2.

[1] = 30 μM test compound, 5 minutes exposure

Mean % Enhancement of KCNQ2/KCNQ3 [1] | Mean % Enhancement of KCNQ2/KCNQ3 (10 μM positive control, applied after vehicle) | SMILES
 | 201.0% | CCOC(=O)Nc1ccc(NCc2ccc(F)cc2)nc1N [Flupirtine, reference compound]
115.8% |  | O=C(Cc1ccc(Nc2c(Cl)cc(C(F)(F)F)cc2Cl)cc1)NCCO [Example 3, 2-[4-(2,6-Dichloro-4-trifluoromethyl-phenylamino)-phenyl]-N-(2-hydroxy-ethyl)-acetamide]
181.9% |  | O=C(O)CNC(=O)Cc1ccc(Nc2cc(Cl)cc(Cl)c2)cc1 [Example 4, {2-[4-(3,5-Dichlorophenylamino)-phenyl]-acetylamino}-acetic acid]

Second part, the molecule before the results:

SMILES | Mean % Enhancement of KCNQ2/KCNQ3 [1] | Mean % Enhancement of KCNQ2/KCNQ3 (10 μM positive control, applied after vehicle)
O=C(Cc1cccc(Nc2c(Cl)cc(Cl)cc2Cl)c1)NCCO [Example 1, N-(2-Hydroxy-ethyl)-2-[3-(2,4,6-trichloro-phenylamino)-phenyl]-acetamide] | 168.2% | 
O=C(O)CNC(=O)Cc1cc(Nc2cc(Cl)cc(Cl)c2)ccc1F [Example 2, {2-[5-(3,5-Dichloro-phenylamino)-2-fluoro-phenyl]-acetylamino}-acetic acid] | 162.5% | 
